Measurements from publication PMC12198282, “Application of a high-density microelectrode array assay using a 3D human iPSC-derived brain microphysiological system model for in vitro neurotoxicity screening of environmental compounds” (Archives of Toxicology, 2025).
Read-outs that look alike come from different tables or passages of the source.

What was measured:
2D rat cortical cultures [1] = settings: rNFA mc5 hit call; cytotoxicity AlamarBlue; cited from earlier work
[2] = system: human iPSC-derived 3D BrainSpheres; experiment: BrainSphere MEA assay (HD-MEA, 13-day exposure, concentration-response); assay type: cell-based; settings: for EC (benchmark response 1.349 SD): 312 h; for AC50: Supplement 3 prints it also for curves with hit call 0; for hitc Mean.Spheroid.Burst.Duration: key: 1 (active); 0 (inactive); for hitc Mean.Spheroid.Burst.ISI: key: 1 (active); 0 (inactive); for hitc Mean.Spheroid.Burst.Peak.Firing.Rate: key: 1 (active); 0 (inactive); for hitc Mean.Spheroid.Firing.Rate: key: 1 (active); 0 (inactive); for hitc Mean.Spheroid.IBI: key: 1 (active); 0 (inactive); for hitc Mean.Spheroid.Nonburst.ISI: key: 1 (active); 0 (inactive); for hitc Mean.Spheroid.Spikes.per.Burst.per.Electrode: key: 1 (active); 0 (inactive); for hitc Mean.Spheroid.Spikes.per.Burst: key: 1 (active); 0 (inactive); for hitc Spheroid.Burst.Frequency: key: 1 (active); 0 (inactive); for hitc Spheroid.Spike.Amplitude.90th.Percentile: key: 1 (active); 0 (inactive)
How it was run: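 Recordings used a 5× RMS spike threshold and 600 s network scans of fixed electrode regions, each region clustered as one BrainSphere. Spheres had 7 weeks of differentiation and 48 h attachment on coated HD-MEA chips before day 0 of the 13-day concentration-response exposure. At least three independent plates were run.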

2D rat cortical cultures [3] = settings: cited from earlier work; for AC50: rNFA mc5
2D rat cortical cultures [4] = settings: cytotoxicity LDH, cited from earlier work
[5] = AUC over 13-day exposure, tcplfit2
[6] = tcplfit2 BMD at benchmark response (1.349*SD of baseline controls)
[7] = tcplfit2 output ACC, activity cutoff in Supplemental Table 1
Throughout, for hitc CCTE Shafer MEA dev active electrodes number: key: 1 (active); 0 (inactive).
Throughout, for hitc CCTE Shafer MEA dev burst duration mean: key: 1 (active); 0 (inactive).
Throughout, for hitc CCTE Shafer MEA dev burst rate: key: 1 (active); 0 (inactive).
Throughout, for hitc CCTE Shafer MEA dev bursting electrodes number: key: 1 (active); 0 (inactive).
Throughout, for hitc CCTE Shafer MEA dev correlation coefficient mean: key: 1 (active); 0 (inactive).
Throughout, for hitc CCTE Shafer MEA dev firing rate mean: key: 1 (active); 0 (inactive).
Throughout, for hitc CCTE Shafer MEA dev inter network spike interval mean: key: 1 (active); 0 (inactive).
Throughout, for hitc CCTE Shafer MEA dev interburst interval mean: key: 1 (active); 0 (inactive).
Throughout, for hitc CCTE Shafer MEA dev mutual information norm: key: 1 (active); 0 (inactive).
Throughout, for hitc CCTE Shafer MEA dev network spike duration std: key: 1 (active); 0 (inactive).
Throughout, for hitc CCTE Shafer MEA dev network spike number: key: 1 (active); 0 (inactive).
Throughout, for hitc CCTE Shafer MEA dev network spike peak: key: 1 (active); 0 (inactive).
Throughout, for hitc CCTE Shafer MEA dev per burst interspike interval: key: 1 (active); 0 (inactive).
Throughout, for hitc CCTE Shafer MEA dev per burst spike percent: key: 1 (active); 0 (inactive).
Throughout, for hitc CCTE Shafer MEA dev per network spike spike number mean: key: 1 (active); 0 (inactive).
Throughout, for hitc CCTE Shafer MEA dev per network spike spike percent: key: 1 (active); 0 (inactive).
Throughout, for hitc CCTE Shafer MEA dev spike duration mean: key: 1 (active); 0 (inactive).

C/C(=C/C=C/[C@@H](C)C(=O)O)[C@H]1CN[C@H](C(=O)O)[C@H]1CC(=O)O [Domoic acid]
hitc CCTE_Shafer_MEA_dev_AB (2D rat cortical cultures [1]): 0 | Difference of minimum potency between BrainSphere MEA assay and rNFA ([2]; 5th percentile of AC50 values by chemical, above 0.5 = more potent in the rNFA): more than 0.5 log10 µM | hitc Mean.Spheroid.Burst.Duration [2, 5]: 1 | hitc Mean.Spheroid.Burst.ISI [2, 5]: 1 | hitc Mean.Spheroid.Burst.Peak.Firing.Rate [2, 5]: 1 | hitc Mean.Spheroid.Firing.Rate [2, 5]: 1 | hitc Mean.Spheroid.IBI [2, 5]: 1 | hitc Mean.Spheroid.Nonburst.ISI [2, 5]: 1 | hitc Mean.Spheroid.Spikes.per.Burst [2, 5]: 1 | hitc Mean.Spheroid.Spikes.per.Burst.per.Electrode [2, 5]: 1 | hitc Spheroid.Burst.Frequency [2, 5]: 1 | hitc Spheroid.Spike.Amplitude.90th.Percentile [2, 5]: 0 | EC (benchmark response 1.349 SD) ([2]; Homo sapiens, read-out: BMD Mean.Spheroid.Burst.ISI): 2.6 µM | EC (benchmark response 1.349 SD) ([2]; Homo sapiens, read-out: BMD Mean.Spheroid.Nonburst.ISI): 0.99 µM | EC50 ([2]; Homo sapiens, read-out: Mean potency): 3320 nM | EC50 ([2]; Homo sapiens, read-out: Minimum potency): 1300 nM | AC50 ([2]; Homo sapiens, read-out: ac50 Mean.Spheroid.Burst.Duration, concentration at 50% maximal activity): 3600 nM | AC50 ([2]; Homo sapiens, read-out: ac50 Mean.Spheroid.Burst.ISI, concentration at 50% maximal activity): 4400 nM | AC50 ([2]; Homo sapiens, read-out: ac50 Mean.Spheroid.Burst.Peak.Firing.Rate, concentration at 50% maximal activity): 3100 nM | AC50 ([2]; Homo sapiens, read-out: ac50 Mean.Spheroid.Firing.Rate, concentration at 50% maximal activity): 5400 nM | AC50 ([2]; Homo sapiens, read-out: ac50 Mean.Spheroid.IBI, concentration at 50% maximal activity): 3550 nM | AC50 ([2]; Homo sapiens, read-out: ac50 Mean.Spheroid.Nonburst.ISI, concentration at 50% maximal activity): 1000 nM | AC50 ([2]; Homo sapiens, read-out: ac50 Mean.Spheroid.Spikes.per.Burst, concentration at 50% maximal activity): 3000 nM | AC50 ([2]; Homo sapiens, read-out: ac50 Mean.Spheroid.Spikes.per.Burst.per.Electrode, concentration at 50% maximal activity): 1700 nM | AC50 ([2]; Homo sapiens, read-out: ac50 Spheroid.Burst.Frequency, concentration at 50% maximal activity): 4200 nM | AC50 ([2]; Homo sapiens, read-out: ac50 Spheroid.Spike.Amplitude.90th.Percentile, concentration at 50% maximal activity): 15000 nM | Percent active ([2]; metrics active out of the total number of metrics screened): 90% | AC50 ([2]; read-out: ac50 Mean.Spheroid.Burst.Duration, concentration at 50% maximal activity, listed as L-Domoic acid): 3580 nM | AC50 ([2]; read-out: ac50 Mean.Spheroid.Burst.ISI, concentration at 50% maximal activity, listed as L-Domoic acid): 4360 nM | AC50 ([2]; read-out: ac50 Mean.Spheroid.Burst.Peak.Firing.Rate, concentration at 50% maximal activity, listed as L-Domoic acid): 3100 nM | AC50 ([2]; read-out: ac50 Mean.Spheroid.Firing.Rate, concentration at 50% maximal activity, listed as L-Domoic acid): 5410 nM | AC50 ([2]; read-out: ac50 Mean.Spheroid.Nonburst.ISI, concentration at 50% maximal activity, listed as L-Domoic acid): 1020 nM | AC50 ([2]; read-out: ac50 Mean.Spheroid.Spikes.per.Burst.per.Electrode, concentration at 50% maximal activity, listed as L-Domoic acid): 1710 nM | AC50 ([2]; read-out: ac50 Mean.Spheroid.Spikes.per.Burst, concentration at 50% maximal activity, listed as L-Domoic acid): 2980 nM | AC50 ([2]; read-out: ac50 Spheroid.Burst.Frequency, concentration at 50% maximal activity, listed as L-Domoic acid): 4170 nM | BMD Mean.Spheroid.Burst.Duration [2, 6]: 2 µM | BMD Mean.Spheroid.Burst.Peak.Firing.Rate [2, 6]: 2 µM | BMD Mean.Spheroid.Firing.Rate [2, 6]: 6.6 µM | BMD Mean.Spheroid.IBI [2, 6]: 1.9 µM | BMD Mean.Spheroid.Spikes.per.Burst [2, 6]: 1.3 µM | BMD Mean.Spheroid.Spikes.per.Burst.per.Electrode [2, 6]: 1.3 µM | BMD Spheroid.Burst.Frequency [2, 6]: 4.4 µM | BMD Spheroid.Spike.Amplitude.90th.Percentile [2, 6]: 14 µM | ACC Mean.Spheroid.Burst.Duration [2, 7]: 1.8 µM | ACC Mean.Spheroid.Burst.ISI [2, 7]: 1.8 µM | ACC Mean.Spheroid.Burst.Peak.Firing.Rate [2, 7]: 1.8 µM | ACC Mean.Spheroid.Firing.Rate [2, 7]: 9.9 µM | ACC Mean.Spheroid.IBI [2, 7]: 3.1 µM | ACC Mean.Spheroid.Nonburst.ISI [2, 7]: 1 µM | ACC Mean.Spheroid.Spikes.per.Burst [2, 7]: 2.8 µM | ACC Mean.Spheroid.Spikes.per.Burst.per.Electrode [2, 7]: 1.5 µM | ACC Spheroid.Burst.Frequency [2, 7]: 3.8 µM | ACC Spheroid.Spike.Amplitude.90th.Percentile [2, 7]: 18 µM | AC50 (2D rat cortical cultures [3]; aenm active_electrodes_number, read-out: ac50 CCTE_Shafer_MEA_dev_active_electrodes_number): 970 nM | AC50 (2D rat cortical cultures [3]; aenm burst_duration_mean, read-out: ac50 CCTE_Shafer_MEA_dev_burst_duration_mean): 992 nM | AC50 (2D rat cortical cultures [3]; aenm burst_rate, read-out: ac50 CCTE_Shafer_MEA_dev_burst_rate): 131 nM | AC50 (2D rat cortical cultures [3]; aenm bursting_electrodes_number, read-out: ac50 CCTE_Shafer_MEA_dev_bursting_electrodes_number): 1280 nM | AC50 (2D rat cortical cultures [3]; aenm correlation_coefficient_mean, read-out: ac50 CCTE_Shafer_MEA_dev_correlation_coefficient_mean): 1560 nM | AC50 (2D rat cortical cultures [3]; aenm firing_rate_mean, read-out: ac50 CCTE_Shafer_MEA_dev_firing_rate_mean): 68 nM | AC50 (2D rat cortical cultures [3]; aenm inter_network_spike_interval_mean, read-out: ac50 CCTE_Shafer_MEA_dev_inter_network_spike_interval_mean): 160 nM | AC50 (2D rat cortical cultures [3]; aenm interburst_interval_mean, read-out: ac50 CCTE_Shafer_MEA_dev_interburst_interval_mean): 32 nM | AC50 (2D rat cortical cultures [3]; aenm mutual_information_norm, read-out: ac50 CCTE_Shafer_MEA_dev_mutual_information_norm): 51 nM | AC50 (2D rat cortical cultures [3]; aenm network_spike_duration_std, read-out: ac50 CCTE_Shafer_MEA_dev_network_spike_duration_std): 259 nM | AC50 (2D rat cortical cultures [3]; aenm network_spike_number, read-out: ac50 CCTE_Shafer_MEA_dev_network_spike_number): 22 nM | AC50 (2D rat cortical cultures [3]; aenm network_spike_peak, read-out: ac50 CCTE_Shafer_MEA_dev_network_spike_peak): 1830 nM | AC50 (2D rat cortical cultures [3]; aenm per_burst_interspike_interval, read-out: ac50 CCTE_Shafer_MEA_dev_per_burst_interspike_interval): 1330 nM | AC50 (2D rat cortical cultures [3]; aenm per_burst_spike_percent, read-out: ac50 CCTE_Shafer_MEA_dev_per_burst_spike_percent): 2060 nM | AC50 (2D rat cortical cultures [3]; aenm per_network_spike_spike_number_mean, read-out: ac50 CCTE_Shafer_MEA_dev_per_network_spike_spike_number_mean): 1050 nM | AC50 (2D rat cortical cultures [3]; aenm per_network_spike_spike_percent, read-out: ac50 CCTE_Shafer_MEA_dev_per_network_spike_spike_percent): 2340 nM | AC50 (2D rat cortical cultures [3]; aenm spike_duration_mean, read-out: ac50 CCTE_Shafer_MEA_dev_spike_duration_mean): 1120 nM | hitc CCTE_Shafer_MEA_dev_active_electrodes_number (2D rat cortical cultures [3]; rNFA mc5 hit call, aenm active_electrodes_number): 1 | hitc CCTE_Shafer_MEA_dev_burst_duration_mean (2D rat cortical cultures [3]; rNFA mc5 hit call, aenm burst_duration_mean): 1 | hitc CCTE_Shafer_MEA_dev_burst_rate (2D rat cortical cultures [3]; rNFA mc5 hit call, aenm burst_rate): 1 | hitc CCTE_Shafer_MEA_dev_bursting_electrodes_number (2D rat cortical cultures [3]; rNFA mc5 hit call, aenm bursting_electrodes_number): 1 | hitc CCTE_Shafer_MEA_dev_correlation_coefficient_mean (2D rat cortical cultures [3]; rNFA mc5 hit call, aenm correlation_coefficient_mean): 1 | hitc CCTE_Shafer_MEA_dev_firing_rate_mean (2D rat cortical cultures [3]; rNFA mc5 hit call, aenm firing_rate_mean): 1 | hitc CCTE_Shafer_MEA_dev_inter_network_spike_interval_mean (2D rat cortical cultures [3]; rNFA mc5 hit call, aenm inter_network_spike_interval_mean): 1 | hitc CCTE_Shafer_MEA_dev_interburst_interval_mean (2D rat cortical cultures [3]; rNFA mc5 hit call, aenm interburst_interval_mean): 1 | hitc CCTE_Shafer_MEA_dev_mutual_information_norm (2D rat cortical cultures [3]; rNFA mc5 hit call, aenm mutual_information_norm): 1 | hitc CCTE_Shafer_MEA_dev_network_spike_duration_std (2D rat cortical cultures [3]; rNFA mc5 hit call, aenm network_spike_duration_std): 1 | hitc CCTE_Shafer_MEA_dev_network_spike_number (2D rat cortical cultures [3]; rNFA mc5 hit call, aenm network_spike_number): 1 | hitc CCTE_Shafer_MEA_dev_network_spike_peak (2D rat cortical cultures [3]; rNFA mc5 hit call, aenm network_spike_peak): 1 | hitc CCTE_Shafer_MEA_dev_per_burst_interspike_interval (2D rat cortical cultures [3]; rNFA mc5 hit call, aenm per_burst_interspike_interval): 1 | hitc CCTE_Shafer_MEA_dev_per_burst_spike_percent (2D rat cortical cultures [3]; rNFA mc5 hit call, aenm per_burst_spike_percent): 1 | hitc CCTE_Shafer_MEA_dev_per_network_spike_spike_number_mean (2D rat cortical cultures [3]; rNFA mc5 hit call, aenm per_network_spike_spike_number_mean): 1 | hitc CCTE_Shafer_MEA_dev_per_network_spike_spike_percent (2D rat cortical cultures [3]; rNFA mc5 hit call, aenm per_network_spike_spike_percent): 1 | hitc CCTE_Shafer_MEA_dev_spike_duration_mean (2D rat cortical cultures [3]; rNFA mc5 hit call, aenm spike_duration_mean): 1 | Bioactivity in the rNFA (in words) (2D rat cortical cultures [3]; ref Brown et al. [2016], Carstens et al. [2022], Frank et al. [2017b], Shafer et al. [2019], ToxCast invitrodb (v4.2)): alter multiple parameters of network formation | hitc CCTE_Shafer_MEA_dev_LDH (2D rat cortical cultures [4]; rNFA mc5 hit call): 1 | AC50 (2D rat cortical cultures [4]; read-out: ac50 CCTE_Shafer_MEA_dev_LDH, rNFA mc5): 6750 nM
